The target in the experiment is T1, human monoacylglycerol lipase (MGL) (Homo sapiens, UniProt Q99685).
T1 sequence (Q99685 1-303): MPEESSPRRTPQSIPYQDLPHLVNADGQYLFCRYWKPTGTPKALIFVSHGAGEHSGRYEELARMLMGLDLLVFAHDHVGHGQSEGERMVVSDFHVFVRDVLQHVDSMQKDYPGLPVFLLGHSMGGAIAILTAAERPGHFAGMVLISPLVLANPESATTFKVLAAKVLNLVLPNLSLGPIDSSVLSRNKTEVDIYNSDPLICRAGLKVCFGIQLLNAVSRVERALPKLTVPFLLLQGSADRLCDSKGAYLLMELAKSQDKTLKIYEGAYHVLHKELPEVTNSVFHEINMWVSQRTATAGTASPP
Type of experiment: biochemical.

Experimental findings from publication PMC11436673 (Journal of Experimental Pharmacology, 2024) are described below.

pIC50: −log10 of the molar value.

Compound `CC[C@H](CC[C@@H](C)[C@H]1CC[C@H]2[C@@H]3CC=C4C[C@@H](O)CC[C@]4(C)[C@H]3CC[C@]12C)C(C)C` [beta-sitosterol] gave a pIC50 of 4.71.
